# From PubChem BioAssay (NCI)
# “And” between values parts separate entries of the source, which are not always exact repeats. Equal values may be shown once.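 Growth conditions: 96-well plates. Treatment: test compound, 48 hours, 5 concentrations. Analysis: linear interpolation between bracketing concentrations; unreached endpoints set to highest concentration. The concentration for 50% growth inhibition is given as GI50. At the TGI there is no net growth.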
# How the values were obtained:
# Test in all cases: growth of human tumour cells (NCI), 48 h
# [1] = system: RXF 393 renal
# [2] = system: RPMI-8226 leukemia
# [3] = system: NCI/ADR-RES ovarian
# [4] = system: 786-0 renal
# [5] = system: SW-620 colon
# [6] = system: SF-539 CNS
# [7] = system: A498 renal
# [8] = system: OVCAR-3 ovarian
# [9] = system: MALME-3M melanoma
# [10] = system: UACC-257 melanoma
Compound,GI50 [1],TGI [1],GI50 [2],TGI [2],GI50 [3],TGI [3],TGI [4],TGI [5],TGI [6],GI50 [7],TGI [7],GI50 [4],GI50 [5],GI50 [6],GI50 [8],TGI [8],GI50 [9],TGI [9],TGI [10],GI50 [10]
COc1cc(Nc2nc3ccccc3nc2NS(=O)(=O)c2ccc(NC(=O)c3ccc(C)c(OC)c3)cc2)cc(OC)c1,2.8 µM and 7.57 µM and 1.06 µM,14.8 µM and 33.4 µM and > 6.13 µM,3.98 µM and 12.3 µM and 1.96 µM,84.5 µM and 53.8 µM and > 10 µM,4.36 µM and 17.7 µM and > 3.64 µM,> 100 µM,74.1 µM and > 7.32 µM,> 100 µM,> 100 µM and 73.7 µM and > 6.59 µM,,,,,,,,,,,
O=C1NC(=O)C(c2ccccc2Cl)=C1Nc1cc(Cl)c(O)c(Cl)c1,5.98 µM,> 23.5 µM,> 19.4 µM,> 25 µM,14.9 µM,> 25 µM,> 25 µM,> 25 µM,> 25 µM,> 25 µM,> 25 µM,23.7 µM,9.74 µM,13.9 µM,9700 nM,24.9 µM,17 µM,> 25 µM,,
O=c1ccs[nH]1,,21 µM,,21.8 µM,,50.5 µM,21.4 µM,50.1 µM,18.3 µM,,99.6 µM,,,,,21.7 µM,,35.5 µM,33.2 µM,
C#CC1(OC(C)=O)CCC2C3CC=C4C=C(OC(C)=O)CCC4(C)C3CCC21C (centres undefined),,,,,,79.3 µM,85.5 µM,49.3 µM,40.1 µM,,> 100 µM,,,,,41.5 µM,,33.9 µM,35.3 µM,
COc1cccc(/C=C/[N+](=O)[O-])c1,1.83 µM,3.39 µM,1.78 µM,4.54 µM,26.2 µM,97.8 µM,4.06 µM,4.27 µM,8.72 µM,3.54 µM,16.5 µM,1.9 µM,1.97 µM,2.64 µM,1960 nM,4.08 µM,12.1 µM,27.8 µM,11.6 µM,3.19 µM
COc1ccc(/C(COc2ccc3c(=O)c(-c4ccccc4)coc3c2)=N\O)cc1,7.81 µM,> 80.7 µM,2.29 µM,> 54.2 µM,0.652 µM,35.5 µM,38.5 µM,16.9 µM,5.32 µM,3.22 µM,18.5 µM,16.9 µM,2.37 µM,1.6 µM,987 nM,10.8 µM,0.72 µM,5.91 µM,> 60 µM,17.9 µM
CC1=C(C(=O)Nc2ccc(Cl)c(Cl)c2)C(c2cccc(Cl)c2)NC(=O)N1 (centres undefined),13.8 µM,32.6 µM,> 17 µM,> 30.1 µM,13.3 µM,33.5 µM,28.3 µM,> 29.4 µM,13.2 µM,,,10.2 µM,12.6 µM,6.48 µM,838 nM,9.13 µM,,,25.6 µM,12.2 µM
O=C1[C@H]2ON(c3ccccc3)C(c3ccccc3)[C@H]2C(=O)N1c1ccc(Cc2ccc(N3C(=O)[C@@H]4ON(c5ccccc5)C(c5ccccc5)[C@@H]4C3=O)cc2)cc1 (some centres undefined),,> 100 µM,,> 100 µM,,,> 100 µM,> 100 µM,> 100 µM,,> 100 µM,,,,,> 100 µM,,> 100 µM,> 100 µM,
O=C1C=CC(=O)C12CCc1ccccc12,,> 100 µM,,45.8 µM,,,> 100 µM,> 100 µM,> 100 µM,,> 100 µM,,,,,> 100 µM,,> 100 µM,> 100 µM,
O=C1c2ccccc2-c2oc(=O)c3ccccc3c21,,> 100 µM,,> 100 µM,,> 100 µM,> 100 µM,> 100 µM,> 100 µM,,> 100 µM,,,,,> 100 µM,,,> 100 µM,
CN(C)CCNC(=O)c1cccc2nc3cc(Cl)ccc3nc12,,6.31 µM,,31.6 µM,,,> 31 µM,> 23.7 µM,11.4 µM,,4.65 µM,,,,,6.15 µM,,4.8 µM,8.69 µM,
CC1=C(C(=O)Nc2cc(=O)n(C)c(=O)n2C)C(c2cccc([N+](=O)[O-])c2)C(C(=O)Nc2cc(=O)n(C)c(=O)n2C)=C(C)N1,,> 100 µM,,> 100 µM,,,> 100 µM,> 100 µM,61.7 µM,,> 100 µM,,,,,> 100 µM,,> 100 µM,> 100 µM,
C[C@]12CCC(=O)C(O)=C1CC[C@@H]1C2CC[C@]2(C)NC(=O)CCC12 (some centres undefined),,> 100 µM,,> 100 µM,,,> 100 µM,> 100 µM,> 100 µM,,> 100 µM,,,,,> 100 µM,,> 100 µM,> 100 µM,
C=C(C)[C@@H]1CC[C@]2(C(=O)O)CC[C@]3(C)[C@H](CC[C@@H]4[C@@]5(C)CCC(NC(=O)c6cccc(OC(C)=O)c6OC(C)=O)C(C)(C)[C@@H]5CC[C@]43C)[C@@H]12 (some centres undefined),1 µM,3.12 µM,0.697 µM,4.44 µM,0.817 µM,6.43 µM,3.47 µM,,2.5 µM,0.644 µM,1.97 µM,0.661 µM,,0.576 µM,1040 nM,3.26 µM,0.317 µM,1.47 µM,0.78 µM,0.209 µM
CC(C)[O-].CC(C)[O-].O=C1C=C([O-])C(=O)c2ccccc21.O=C1C=C([O-])C(=O)c2ccccc21.[Ti+4],> 85.3 µM,> 100 µM,19.1 µM,> 100 µM,,,> 100 µM,> 100 µM,> 100 µM,> 100 µM,> 100 µM,> 86.4 µM,44.2 µM,> 100 µM,> 70500 nM,> 100 µM,14.7 µM,> 100 µM,> 100 µM,4.97 µM
COC(=O)c1cc2c3ccccc3n3c(=O)c4cc5ccccc5nc4c(n1)c23,> 100 µM,> 100 µM,,,> 100 µM,> 100 µM,> 100 µM,> 100 µM,> 100 µM,> 100 µM,> 100 µM,> 100 µM,> 100 µM,> 100 µM,> 100000 nM,> 100 µM,> 100 µM,> 100 µM,> 100 µM,> 100 µM
